Test results: patent US9072703B2 (Ipsen Pharma S.A.S., priority 2008, dated 2015)
Non-standard residues stand in square brackets, D forms with d. Residues, ends and D or L forms follow the SMILES beside them. No end group written: not given here. Ac6c = NC1(C(=O)O)CCCCC1; Nle = CCCC[C@H](N)C(=O)O; Ac5c = NC1(C(=O)O)CCCC1; Aib = CC(C)(N)C(=O)O

Assays:
[1] = Human plasma half-life assay; format: in vitro ADME; settings: 37° C., LC-MS, read-out: Human Plasma T½ (converted)
Method: (§1) B. Human and Rat Plasma Half-Life Assay
(§2) 50 μL was removed at various times, like at 0, 1, 2, 3, 4, 8, 24, 32, 48, 56, 72 hours, mixed with 5 μL formic acid and 150 μL acetonitrile in a microcentrifuge tube, vertexed, and centrifuged for 10 minutes at 10K rpm. The supernatant was transferred to an injection vial and analyzed by LC-MS. The LC-MS system consisted of an API4000 mass spectrometer with an ESI probe. Positive ion mode and full scan detection were used. HPLC separation was carried out on a Luna 3μ C8 (2), 2×30 mm column with a gradient from 90% A to 90% B in 10 minutes at a flow rate of 0.3 ml/min. Buffer A was 1% formic acid in water and buffer B was 1% formic acid acetonitrile.

[2] = Rat plasma half-life assay; format: in vitro ADME; settings: 37° C., LC-MS, read-out: Rat Plasma T½ (converted)
Method: as §1, §2

Compound | half-life at 0.1 mg/ml [1] [h] | half-life at 0.1 mg/ml [2] [h]
CCCCCCCCCCCC(=O)NCCC[C@H](NC(=O)CNC(=O)[C@H](CCCCN)NC(=O)[C@H](CCC(N)=O)NC(=O)[C@H](C)NC(=O)[C@H](CC(C)C)NC(=O)[C@H](CC(C)C)NC(=O)[C@H](Cc1c[nH]c2ccccc12)NC(=O)[C@H](CC(N)=O)NC(=O)[C@@H](NC(=O)[C@H](Cc1ccccc1)NC(=O)[C@H](CC(=O)O)NC(=O)[C@H](CCC(N)=O)NC(=O)[C@H](CCC(N)=O)NC(=O)[C@H](Cc1c[nH]cn1)NC(=O)[C@@H](NC(=O)[C@H](CCCCN)NC(=O)[C@H](CC(=O)O)NC(=O)[C@H](CCSC)NC(=O)[C@H](C)NC(=O)[C@@H](NC(=O)C1(NC(=O)[C@H](Cc2ccc(O)cc2)NC(=O)[C@H](CC(=O)O)NC(=O)[C@H](CO)NC(=O)[C@@H](NC(=O)[C@H](Cc2ccccc2)NC(=O)[C@@H](NC(=O)CNC(=O)[C@H](CCC(=O)O)NC(=O)[C@H](C)NC(=O)[C@@H](N)Cc2ccc(O)cc2)[C@@H](C)O)[C@@H](C)CC)CCCC1)[C@@H](C)CC)[C@@H](C)CC)C(C)C)C(=O)N[C@@H](CCCCN)C(=O)N[C@@H](CC(N)=O)C(=O)N[C@@H](CC(=O)O)C(=O)N[C@@H](Cc1c[nH]c2ccccc12)C(=O)N[C@@H](CCCCN)C(=O)N[C@@H](Cc1c[nH]cn1)C(=O)N[C@@H](CC(N)=O)C(=O)N[C@H](C(=O)N[C@H](C(=O)N[C@@H](CCC(N)=O)C(=O)N[C@@H](Cc1c[nH]cn1)C(=O)O)[C@@H](C)O)[C@@H](C)CC [Example 34, [A5c^11, Orn^32(N—C(O)—(CH2)10—CH3), His^43]hGIP(1-43)-OH] | 7.5 | 20.1
CC[C@H](C)[C@H](NC(=O)[C@H](CCCCN)NC(=O)[C@H](CC(=O)O)NC(=O)[C@H](CCSC)NC(=O)[C@H](C)NC(=O)[C@@H](NC(=O)C1(NC(=O)[C@H](Cc2ccc(O)cc2)NC(=O)[C@H](CC(=O)O)NC(=O)[C@H](CO)NC(=O)[C@@H](NC(=O)[C@H](Cc2ccccc2)NC(=O)[C@@H](NC(=O)CNC(=O)[C@H](CCC(=O)O)NC(=O)[C@H](C)NC(=O)[C@@H](N)Cc2ccc(O)cc2)[C@@H](C)O)[C@@H](C)CC)CCCC1)[C@@H](C)CC)C(=O)N[C@@H](Cc1c[nH]cn1)C(=O)N[C@@H](CCC(N)=O)C(=O)N[C@@H](CCC(N)=O)C(=O)N[C@@H](CC(=O)O)C(=O)N[C@@H](Cc1ccccc1)C(=O)N[C@H](C(=O)N[C@@H](CC(N)=O)C(=O)N[C@@H](Cc1c[nH]c2ccccc12)C(=O)N[C@@H](CC(C)C)C(=O)N[C@@H](CC(C)C)C(=O)N[C@@H](C)C(=O)N[C@@H](CCC(N)=O)C(=O)N[C@@H](CCCCN)C(N)=O)C(C)C [Example 28, (A5c^11)hGIP(1-30)-NH2] (H-YAEGTFISDY[Ac5c]IAMDKIHQQDFVNWLLAQK-NH2; N-terminus assumed) | 6.6 | 2.4
CCCCCCCCCCCC(=O)NCCCC[C@H](NC(=O)[C@H](CCC(N)=O)NC(=O)[C@@H](NC(=O)[C@@H](NC(=O)[C@H](CC(N)=O)NC(=O)[C@H](Cc1c[nH]cn1)NC(=O)[C@H](CCCCN)NC(=O)[C@H](Cc1c[nH]c2ccccc12)NC(=O)[C@H](CC(=O)O)NC(=O)[C@H](CC(N)=O)NC(=O)[C@H](CCCCN)NC(=O)[C@H](CCCCN)NC(=O)CNC(=O)[C@H](CCCCN)NC(=O)[C@H](CCC(N)=O)NC(=O)[C@H](C)NC(=O)[C@H](CC(C)C)NC(=O)[C@H](CC(C)C)NC(=O)[C@H](Cc1c[nH]c2ccccc12)NC(=O)[C@H](CC(N)=O)NC(=O)[C@@H](NC(=O)[C@H](Cc1ccccc1)NC(=O)[C@H](CC(=O)O)NC(=O)[C@H](CCC(N)=O)NC(=O)[C@H](CCC(N)=O)NC(=O)[C@H](Cc1c[nH]cn1)NC(=O)[C@@H](NC(=O)[C@H](CCCCN)NC(=O)[C@H](CC(=O)O)NC(=O)[C@H](CCSC)NC(=O)[C@H](C)NC(=O)[C@@H](NC(=O)C1(NC(=O)[C@H](Cc2ccc(O)cc2)NC(=O)[C@H](CC(=O)O)NC(=O)[C@H](CO)NC(=O)[C@@H](NC(=O)[C@H](Cc2ccccc2)NC(=O)[C@@H](NC(=O)CNC(=O)[C@H](CCC(=O)O)NC(=O)[C@H](C)NC(=O)[C@@H](N)Cc2ccc(O)cc2)[C@@H](C)O)[C@@H](C)CC)CCCC1)[C@@H](C)CC)[C@@H](C)CC)C(C)C)[C@@H](C)CC)[C@@H](C)O)C(=O)O [Example 36, [A5c^11, Lys^43(N—C(O)—(CH2)10—CH3)]hGIP(1-43)-OH] | 14.8 | 53.3
YAEGTFISDY[Ac5c]IAMDKIHQQDFVNWLLAQKGCKNDWKHNI[Ac5c]Q-NH2 [Example 31, (A5c^11, 41, Cys^32)hGIP(1-42)-NH2] | 26.6 | 16.3
CCCCCCCCCCCCCCCC(=O)NCCCC[C@H](NC(=O)[C@H](CCC(N)=O)NC(=O)[C@@H](NC(=O)[C@@H](NC(=O)[C@H](CC(N)=O)NC(=O)[C@H](Cc1c[nH]cn1)NC(=O)[C@H](CCCCN)NC(=O)[C@H](Cc1c[nH]c2ccccc12)NC(=O)[C@H](CC(=O)O)NC(=O)[C@H](CC(N)=O)NC(=O)[C@H](CCCCN)NC(=O)[C@H](CCCCN)NC(=O)CNC(=O)[C@H](CCCCN)NC(=O)[C@H](CCC(N)=O)NC(=O)[C@H](C)NC(=O)[C@H](CC(C)C)NC(=O)[C@H](CC(C)C)NC(=O)[C@H](Cc1c[nH]c2ccccc12)NC(=O)[C@H](CC(N)=O)NC(=O)[C@@H](NC(=O)[C@H](Cc1ccccc1)NC(=O)[C@H](CC(=O)O)NC(=O)[C@H](CCC(N)=O)NC(=O)[C@H](CCC(N)=O)NC(=O)[C@H](Cc1c[nH]cn1)NC(=O)[C@@H](NC(=O)[C@H](CCCCN)NC(=O)[C@H](CC(=O)O)NC(=O)[C@H](CCSC)NC(=O)[C@H](C)NC(=O)[C@@H](NC(=O)C1(NC(=O)[C@H](Cc2ccc(O)cc2)NC(=O)[C@H](CC(=O)O)NC(=O)[C@H](CO)NC(=O)[C@@H](NC(=O)[C@H](Cc2ccccc2)NC(=O)[C@@H](NC(=O)CNC(=O)[C@H](CCC(=O)O)NC(=O)[C@H](C)NC(=O)[C@@H](N)Cc2ccc(O)cc2)[C@@H](C)O)[C@@H](C)CC)CCCC1)[C@@H](C)CC)[C@@H](C)CC)C(C)C)[C@@H](C)CC)[C@@H](C)O)C(=O)O [Example 40, [A5c^11, Lys^43(N—C(O)—(CH2)14—CH3)]hGIP(1-43)-OH] | 17.2 | 19.3
CCCCCCCCCCCCCCCC(=O)NCCC[C@H](NC(=O)[C@H](CCCCN)NC(=O)CNC(=O)[C@H](CCCCN)NC(=O)[C@H](CCC(N)=O)NC(=O)[C@H](C)NC(=O)[C@H](CC(C)C)NC(=O)[C@H](CC(C)C)NC(=O)[C@H](Cc1c[nH]c2ccccc12)NC(=O)[C@H](CC(N)=O)NC(=O)[C@@H](NC(=O)[C@H](Cc1ccccc1)NC(=O)[C@H](CC(=O)O)NC(=O)[C@H](CCC(N)=O)NC(=O)[C@H](CCC(N)=O)NC(=O)[C@H](Cc1c[nH]cn1)NC(=O)[C@@H](NC(=O)[C@H](CCCCN)NC(=O)[C@H](CC(=O)O)NC(=O)[C@H](CCSC)NC(=O)[C@H](C)NC(=O)[C@@H](NC(=O)C1(NC(=O)[C@H](Cc2ccc(O)cc2)NC(=O)[C@H](CC(=O)O)NC(=O)[C@H](CO)NC(=O)[C@@H](NC(=O)[C@H](Cc2ccccc2)NC(=O)[C@@H](NC(=O)CNC(=O)[C@H](CCC(=O)O)NC(=O)[C@H](C)NC(=O)[C@@H](N)Cc2ccc(O)cc2)[C@@H](C)O)[C@@H](C)CC)CCCC1)[C@@H](C)CC)[C@@H](C)CC)C(C)C)C(=O)N[C@@H](CC(N)=O)C(=O)N[C@@H](CC(=O)O)C(=O)N[C@@H](Cc1c[nH]c2ccccc12)C(=O)N[C@@H](CCCCN)C(=O)N[C@@H](Cc1c[nH]cn1)C(=O)N[C@@H](CC(N)=O)C(=O)N[C@H](C(=O)N[C@H](C(=O)N[C@@H](CCC(N)=O)C(=O)N[C@@H](Cc1c[nH]cn1)C(=O)O)[C@@H](C)O)[C@@H](C)CC [Example 42, [A5c^11, Orn^33(N—C(O)—(CH2)14—CH3), His^43]hGIP(1-43)-OH] | 6.3 | 28.3
YAEGTFISDY[Ac6c]IA[Ac6c]DKIHQQDFVNWLLAQKGKKNDWKHN[Ac6c]TQ-OH [Example 14, (A6c^11, 14, 40)hGIP(1-42)-OH] | 11.6 | 4.8
YAEGTFISDY[Ac5c]IAMDKIHQQDFVNWLLAQKGKKNDWKHNITQA-OH [Example 8, (A5c^11, Ala^43)hGIP(1-43)-OH] | 7.4 | 2.3
YAEGTFISDY[Ac5c]IAMDKIHQQDFVNWLLAQKGKKNDWKHNI[Ac5c]QC-NH2 [Example 33, (A5c^11, 41, Cys^43)hGIP(1-43)-NH2] | 15.8 | 6.5
CC[C@H](C)[C@H](NC(=O)[C@H](CCCCN)NC(=O)[C@H](CC(=O)O)NC(=O)C1(NC(=O)[C@H](C)NC(=O)[C@@H](NC(=O)C2(NC(=O)[C@H](Cc3ccc(O)cc3)NC(=O)[C@H](CC(=O)O)NC(=O)[C@H](CO)NC(=O)[C@@H](NC(=O)[C@H](Cc3ccccc3)NC(=O)[C@@H](NC(=O)CNC(=O)[C@H](CCC(=O)O)NC(=O)[C@H](C)NC(=O)[C@@H](N)Cc3ccc(O)cc3)[C@@H](C)O)[C@@H](C)CC)CCCC2)[C@@H](C)CC)CCCC1)C(=O)N[C@@H](Cc1c[nH]cn1)C(=O)N[C@@H](CCC(N)=O)C(=O)N[C@@H](CCC(N)=O)C(=O)N[C@@H](CC(=O)O)C(=O)N[C@@H](Cc1ccccc1)C(=O)N[C@H](C(=O)N[C@@H](CC(N)=O)C(=O)N[C@@H](Cc1c[nH]c2ccccc12)C(=O)N[C@@H](CC(C)C)C(=O)N[C@@H](CC(C)C)C(=O)N[C@@H](C)C(=O)N[C@@H](CCC(N)=O)C(=O)N[C@@H](CCCCN)C(N)=O)C(C)C [Example 30, (A5c^11, 14)hGIP(1-30)-NH2] (H-YAEGTFISDY[Ac5c]IA[Ac5c]DKIHQQDFVNWLLAQK-NH2; N-terminus assumed) | 6.2 | 13.6
YAEGTFISDYSI[Aib][Nle]DKIHQQDFVNWLLAQKGKKNDWKHNITQF-OH [Example 9, (Aib^13, Nle^14, Phe^43)hGIP(1-43)-OH] | 6.9 | 1.3
